Data taken from patent US5413787A, “Bioparyl, a biological regulator, active against various pathologies” (priority 1988, dated 1995).

Experiments:
[1] = system: RNases in plasma of healthy persons; assay: Effect of iron on in vitro activity of RNases of healthy persons; type: biochemical, human; conditions: FIG. 5
Experimental: (§1) Bioparyl dissolved in distilled water (pH 7.0, 5 mg/ml) is used (0.01 to 0.05 ml). Incubation medium (0.15 ml final volume) contains: Tris-HCl buffer, 10^-2 M pH 7.60: 0.05 ml; ^3 H-RNA (r-RNA or 4 S RNA), 100 μg, 15,000 CPM: 0.05 ml; ten-times diluted plasma: 0.01 to 0.05 ml. After incubation at 36° C. for 10 min. (water bath) (generally necessary conditions but that may vary in case of necessity), the reaction is stopped by addition of 3 ml trichloroacetic acid (TCA) (5%); the tubes are cooled in order to assure a good precipitation of proteins and undegraded ^3 H-RNA.
(§2) The precipitate is filtered on glass millipore (GF/C, Whatman), washed with 5% TCA solution then with 95° ethyl alcohol. The filters are dried and the radioactivity determined in a scintillation spectrometer. The results are expressed as percent of non-degraded radioactive RNA, the radioactivity of initial intact RNA being taken as 100%.
(§3) One knows that the RNases enable the furnishing of the RNA primers necessary for the replication of DNA, and that the primers accepted by DNA from healthy tissues are not the same as the primers required for replication of DNA from cancer tissues. Thus, regulation of RNases (enzymes able to provide primers in cells)is a capital phenomenon in carcinology and virology.

[2] = system: RNases from human fibrosis skin; assay: In vitro RNase activity of radiation-induced skin fibrosis extract (r-RNA degradation); type: biochemical; conditions: FIG. 7
Experimental: Sample of skin fibrosis induced by radiation has been broken in a mortar (4° C.) in the presence of Tris-HCl buffer 0.02M containing 0.06M KCl and 0.001M MgCl2. Final volume: 1.5 ml. The activity of RNases present in this extract has been tested with 4 S RNA and ribosomal RNA (r-RNA); 0.01; 0.02; 0.03 and 0.04 ml of enzyme extract were incubated in the presence of radioactive ^3 H-r-RNA or ^3 H-4 S RNA. Incubation time: 15 min. at 36° C. The results are illustrated in FIG. 7. Degradation of labelled RNA is linear in function of increasing concentration of the extract. r-RNA is more rapidly degraded than 4 S RNA. […] Ferric iron (FeCl3), at low concentrations, stimulates r-RNA degradation; but at higher concentrations it inhibits it.

[3] = system: RNases from patients affected by cancers, auto-immune diseases or viral pathologies; assay: Effect of iron on in vitro activity of RNases from patients; type: biochemical, human; conditions: cancers (leukemia, solid cancers)
Experimental: as §1, §2, §3

[Cl][Fe]([Cl])[Cl] [Ferric iron]
in vitro activity of RNases of healthy persons under iron [1]: without effect
r-RNA degradation by fibrosis skin RNases, FeCl3 higher concentrations ([2]; at higher concentrations): inhibits
r-RNA degradation by fibrosis skin RNases, FeCl3 low concentrations ([2]; at low concentrations): stimulates
in vitro activity of RNases from patients under ferric iron [3]: strongly accelerates
